Data taken from ChEMBL document CHEMBL4725363 (J Med Chem, 2020).
The source made the active and inactive calls. No cut-off for these calls is given here.

Key:
[1] = target: Cone cGMP-specific 3',5'-cyclic phosphodiesterase subunit alpha' (Homo sapiens, UniProt P51160); experiment: Inhibition of human PDE6C (2-854 residues) expressed in Sf9 cells incubated for 15 mins using [3H]-cGMP as substrate by liquid scintillation counting method
[2] = Acute toxicity in KM mouse at 1000 to 1500 mg/kg, po administered as single dose measured every 24 hrs for 14 days relative to control; assay type: organism-based; settings: in vivo, 336 h, dose 1000-1500 mg/kg, time 14 day
[3] = target: DNA topoisomerase 2-alpha (Homo sapiens) (UniProt P11388); experiment: Inhibition of Top2 (unknown origin) mediated supercoiled DNA relaxation at 100 uM
[4] = target: T1, Cytochrome P450 1A2 (Homo sapiens, UniProt P05177); experiment: Inhibition of CYP1A2 (unknown origin); assay type: ADME
T1 sequence (P05177 whole entry): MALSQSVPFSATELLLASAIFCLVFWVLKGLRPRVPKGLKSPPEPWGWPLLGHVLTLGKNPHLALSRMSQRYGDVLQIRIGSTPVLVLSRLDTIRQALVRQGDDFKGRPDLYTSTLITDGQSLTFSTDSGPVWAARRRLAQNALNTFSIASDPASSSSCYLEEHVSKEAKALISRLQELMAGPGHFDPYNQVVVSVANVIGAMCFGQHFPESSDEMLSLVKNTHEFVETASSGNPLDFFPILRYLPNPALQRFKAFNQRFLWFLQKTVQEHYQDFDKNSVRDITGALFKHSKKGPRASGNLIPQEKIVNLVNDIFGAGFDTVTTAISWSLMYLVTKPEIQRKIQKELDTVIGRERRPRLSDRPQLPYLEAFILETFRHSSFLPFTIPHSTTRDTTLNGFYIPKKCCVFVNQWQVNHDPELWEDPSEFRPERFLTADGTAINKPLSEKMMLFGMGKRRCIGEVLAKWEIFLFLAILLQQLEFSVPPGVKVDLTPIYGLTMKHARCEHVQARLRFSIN

[5] = target: Cytochrome P450 2D6 (Homo sapiens, UniProt P10635); experiment: Inhibition of CYP2D6 (unknown origin); assay type: ADME
[6] = target: T2, DNA topoisomerase 1 (Homo sapiens) (UniProt P11387); experiment: Inhibition of Top (unknown origin) mediated supercoiled DNA relaxation at 100 uM
T2 sequence (whole entry): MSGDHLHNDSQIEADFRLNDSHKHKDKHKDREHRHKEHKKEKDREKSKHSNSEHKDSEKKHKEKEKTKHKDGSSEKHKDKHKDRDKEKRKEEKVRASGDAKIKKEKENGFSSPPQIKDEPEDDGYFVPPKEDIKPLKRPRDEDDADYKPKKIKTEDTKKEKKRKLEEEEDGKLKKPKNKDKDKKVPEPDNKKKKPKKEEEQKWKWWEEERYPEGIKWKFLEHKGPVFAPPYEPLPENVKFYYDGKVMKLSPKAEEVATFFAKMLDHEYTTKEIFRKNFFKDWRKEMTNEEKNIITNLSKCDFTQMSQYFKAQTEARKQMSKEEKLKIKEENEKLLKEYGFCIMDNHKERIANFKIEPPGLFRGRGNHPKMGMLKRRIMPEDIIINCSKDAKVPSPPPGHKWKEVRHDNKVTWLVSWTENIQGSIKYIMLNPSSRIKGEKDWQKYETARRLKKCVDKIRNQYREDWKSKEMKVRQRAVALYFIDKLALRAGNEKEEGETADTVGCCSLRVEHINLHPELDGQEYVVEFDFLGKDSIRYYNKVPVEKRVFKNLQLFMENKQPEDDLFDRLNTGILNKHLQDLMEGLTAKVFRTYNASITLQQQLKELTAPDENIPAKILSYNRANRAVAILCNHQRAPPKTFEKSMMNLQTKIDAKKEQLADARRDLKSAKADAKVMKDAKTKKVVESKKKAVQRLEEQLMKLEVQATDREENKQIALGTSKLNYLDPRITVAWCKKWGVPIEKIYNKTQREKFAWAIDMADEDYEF

[7] = tested on: Rattus norvegicus; experiment: Suppression of hypertension pressure in Wistar rat model of pulmonary hypertension assessed as reduction in MCT-induced wall thickness of small pulmonary arteries at 20 mg/kg/day, po for 3 weeks; assay type: functional, organism-based
[8] = MRT (0 to t) in Sprague-Dawley rat at 2.5 mg/kg, iv after 24 hrs by LC-MS/MS analysis; assay type: ADME, organism-based; settings: in vivo
[9] = target: Cytochrome P450 2C9 (Homo sapiens, UniProt P11712); experiment: Inhibition of CYP2C9 (unknown origin); assay type: ADME
[10] = AUC (0 to t) in Sprague-Dawley rat at 5 mg/kg, po after 24 hrs by LC-MS/MS analysis; assay type: ADME, organism-based; set-up: route oral, time 24 hrs, dose 5 mg/kg; settings: in vivo
[11] = target: Voltage-gated inwardly rectifying potassium channel KCNH2 (Homo sapiens, UniProt Q12809); experiment: Inhibition of human ERG expressed in CHO cells by patch-clamp electrophysiology method; assay type: cell-based
[12] = Tmax in Sprague-Dawley rat at 5 mg/kg, po after 24 hrs by LC-MS/MS analysis; assay type: ADME, organism-based; settings: in vivo
[13] = Half life in Sprague-Dawley rat at 2.5 mg/kg, iv after 24 hrs by LC-MS/MS analysis; assay type: ADME, organism-based; settings: in vivo
[14] = target: Cytochrome P450 3A4 (Homo sapiens, UniProt P08684); experiment: Inhibition of CYP3A4 (unknown origin); assay type: ADME
[15] = Oral bioavailability in Sprague-Dawley rat at 5 mg/kg after 24 hrs by LC-MS/MS analysis; assay type: ADME, organism-based; settings: in vivo
[16] = AUC (0 to t) in Sprague-Dawley rat at 2.5 mg/kg, iv after 24 hrs by LC-MS/MS analysis; assay type: ADME, organism-based; set-up: route intravenous, dose 2.5 mg/kg, time 24 hrs; settings: in vivo
[17] = target: T3, Cytochrome P450 2B6 (Homo sapiens, UniProt P20813); experiment: Inhibition of CYP2B6 (unknown origin); assay type: ADME
T3 sequence (P20813 whole entry): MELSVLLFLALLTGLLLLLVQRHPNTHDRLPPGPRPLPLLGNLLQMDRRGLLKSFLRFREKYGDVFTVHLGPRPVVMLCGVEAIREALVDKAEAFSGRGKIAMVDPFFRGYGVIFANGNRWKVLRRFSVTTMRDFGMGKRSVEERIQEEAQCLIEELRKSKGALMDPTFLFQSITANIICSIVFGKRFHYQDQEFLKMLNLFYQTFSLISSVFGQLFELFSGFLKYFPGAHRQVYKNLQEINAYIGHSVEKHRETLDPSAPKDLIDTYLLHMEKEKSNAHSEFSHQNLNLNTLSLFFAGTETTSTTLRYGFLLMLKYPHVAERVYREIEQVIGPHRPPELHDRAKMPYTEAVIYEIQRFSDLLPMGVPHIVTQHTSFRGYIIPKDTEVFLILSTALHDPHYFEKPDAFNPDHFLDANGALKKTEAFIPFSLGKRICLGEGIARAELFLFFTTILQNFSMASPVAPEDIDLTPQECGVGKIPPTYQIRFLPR

[18] = tested on: Rattus norvegicus; experiment: Suppression of hypertension pressure in Wistar rat model of pulmonary hypertension assessed as dilation of small pulmonary vessels arteries at 20 mg/kg/day, po for 3 weeks by H and E staining based microscopy; assay type: functional, organism-based
[19] = target: cGMP-specific 3',5'-cyclic phosphodiesterase (Homo sapiens, UniProt O76074); experiment: Inhibition of human PDE5A1 (535-860 residues) expressed in Escherichia coli BL21 incubated for 15 mins using [3H]-cGMP as substrate by liquid scintillation counting method

Sequence of Cone cGMP-specific 3',5'-cyclic phosphodiesterase subunit alpha' (P51160 whole entry, the tested form may be a part): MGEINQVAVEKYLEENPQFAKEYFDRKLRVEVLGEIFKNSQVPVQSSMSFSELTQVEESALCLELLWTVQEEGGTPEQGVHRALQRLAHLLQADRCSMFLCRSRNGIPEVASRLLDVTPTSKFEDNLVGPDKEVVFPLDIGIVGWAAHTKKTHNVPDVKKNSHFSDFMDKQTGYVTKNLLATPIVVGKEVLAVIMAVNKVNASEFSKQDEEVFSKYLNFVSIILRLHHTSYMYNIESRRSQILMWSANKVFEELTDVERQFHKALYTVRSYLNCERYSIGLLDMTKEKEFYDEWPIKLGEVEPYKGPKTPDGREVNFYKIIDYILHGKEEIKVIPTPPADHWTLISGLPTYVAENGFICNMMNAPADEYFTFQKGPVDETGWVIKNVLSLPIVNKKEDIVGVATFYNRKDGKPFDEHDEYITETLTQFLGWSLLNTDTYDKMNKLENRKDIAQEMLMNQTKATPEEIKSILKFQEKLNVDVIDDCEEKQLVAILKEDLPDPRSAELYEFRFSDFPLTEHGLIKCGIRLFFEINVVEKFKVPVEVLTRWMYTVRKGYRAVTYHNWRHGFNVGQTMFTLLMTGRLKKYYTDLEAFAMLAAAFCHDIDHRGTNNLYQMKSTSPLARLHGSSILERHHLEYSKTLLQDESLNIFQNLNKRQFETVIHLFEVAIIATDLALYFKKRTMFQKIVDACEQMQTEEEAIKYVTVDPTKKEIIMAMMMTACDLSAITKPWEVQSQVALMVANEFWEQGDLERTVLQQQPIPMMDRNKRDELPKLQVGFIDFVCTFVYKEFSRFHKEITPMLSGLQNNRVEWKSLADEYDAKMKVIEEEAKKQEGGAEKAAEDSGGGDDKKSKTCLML
Sequence of DNA topoisomerase 2-alpha (Homo sapiens) (P11388 whole entry): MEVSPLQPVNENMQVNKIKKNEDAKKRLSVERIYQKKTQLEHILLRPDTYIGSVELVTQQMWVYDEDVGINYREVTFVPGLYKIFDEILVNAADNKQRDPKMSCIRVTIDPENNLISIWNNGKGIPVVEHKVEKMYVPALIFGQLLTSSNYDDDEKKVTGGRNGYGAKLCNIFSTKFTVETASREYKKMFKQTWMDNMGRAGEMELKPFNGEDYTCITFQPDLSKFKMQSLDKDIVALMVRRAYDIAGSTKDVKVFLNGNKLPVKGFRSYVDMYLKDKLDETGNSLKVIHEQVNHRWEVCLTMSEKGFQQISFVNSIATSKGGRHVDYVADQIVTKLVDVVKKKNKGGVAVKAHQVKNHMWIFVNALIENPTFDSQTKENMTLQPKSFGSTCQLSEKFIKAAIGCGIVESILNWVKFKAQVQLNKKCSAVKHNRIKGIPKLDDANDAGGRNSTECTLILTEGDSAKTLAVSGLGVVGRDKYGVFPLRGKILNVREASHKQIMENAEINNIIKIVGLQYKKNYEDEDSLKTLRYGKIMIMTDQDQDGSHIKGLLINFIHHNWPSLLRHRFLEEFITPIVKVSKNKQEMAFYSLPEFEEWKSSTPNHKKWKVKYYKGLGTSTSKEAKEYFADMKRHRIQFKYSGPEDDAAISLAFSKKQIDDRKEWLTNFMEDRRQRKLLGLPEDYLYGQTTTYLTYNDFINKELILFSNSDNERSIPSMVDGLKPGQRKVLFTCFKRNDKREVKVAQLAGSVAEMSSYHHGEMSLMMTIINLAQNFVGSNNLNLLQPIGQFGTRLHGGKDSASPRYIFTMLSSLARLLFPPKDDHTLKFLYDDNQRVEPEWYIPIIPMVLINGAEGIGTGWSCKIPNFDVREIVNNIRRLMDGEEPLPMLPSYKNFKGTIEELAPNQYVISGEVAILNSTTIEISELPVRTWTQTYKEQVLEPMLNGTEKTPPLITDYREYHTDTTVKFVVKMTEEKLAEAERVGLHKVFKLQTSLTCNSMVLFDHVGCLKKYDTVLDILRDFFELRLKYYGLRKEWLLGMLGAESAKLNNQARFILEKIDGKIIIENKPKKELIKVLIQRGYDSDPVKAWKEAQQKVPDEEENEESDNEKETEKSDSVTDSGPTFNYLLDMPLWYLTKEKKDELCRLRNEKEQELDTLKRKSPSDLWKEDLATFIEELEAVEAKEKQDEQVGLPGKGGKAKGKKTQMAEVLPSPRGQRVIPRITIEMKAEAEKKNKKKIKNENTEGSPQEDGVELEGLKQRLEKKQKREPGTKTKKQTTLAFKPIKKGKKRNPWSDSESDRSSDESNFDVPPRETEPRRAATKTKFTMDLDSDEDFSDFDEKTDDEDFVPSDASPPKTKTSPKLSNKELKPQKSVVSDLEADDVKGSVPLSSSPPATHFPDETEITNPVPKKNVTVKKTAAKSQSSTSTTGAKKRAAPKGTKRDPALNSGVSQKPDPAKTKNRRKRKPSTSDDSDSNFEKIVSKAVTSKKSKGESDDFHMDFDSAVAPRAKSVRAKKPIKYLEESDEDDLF
Sequence of Cytochrome P450 2C9 (P11712 whole entry): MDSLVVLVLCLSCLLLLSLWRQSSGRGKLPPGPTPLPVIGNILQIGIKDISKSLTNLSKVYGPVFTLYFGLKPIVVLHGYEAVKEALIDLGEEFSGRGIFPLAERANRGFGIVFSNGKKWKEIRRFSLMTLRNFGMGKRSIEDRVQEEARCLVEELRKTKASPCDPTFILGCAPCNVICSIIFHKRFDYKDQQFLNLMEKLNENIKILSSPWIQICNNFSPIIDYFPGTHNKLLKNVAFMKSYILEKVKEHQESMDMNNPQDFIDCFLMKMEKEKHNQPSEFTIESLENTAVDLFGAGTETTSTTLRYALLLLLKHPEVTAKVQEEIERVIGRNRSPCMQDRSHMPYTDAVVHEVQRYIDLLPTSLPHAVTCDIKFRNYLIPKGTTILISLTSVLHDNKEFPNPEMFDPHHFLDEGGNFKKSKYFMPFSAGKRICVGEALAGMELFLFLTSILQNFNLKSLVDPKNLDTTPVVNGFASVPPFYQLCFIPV
Sequence of Voltage-gated inwardly rectifying potassium channel KCNH2 (Q12809 whole entry): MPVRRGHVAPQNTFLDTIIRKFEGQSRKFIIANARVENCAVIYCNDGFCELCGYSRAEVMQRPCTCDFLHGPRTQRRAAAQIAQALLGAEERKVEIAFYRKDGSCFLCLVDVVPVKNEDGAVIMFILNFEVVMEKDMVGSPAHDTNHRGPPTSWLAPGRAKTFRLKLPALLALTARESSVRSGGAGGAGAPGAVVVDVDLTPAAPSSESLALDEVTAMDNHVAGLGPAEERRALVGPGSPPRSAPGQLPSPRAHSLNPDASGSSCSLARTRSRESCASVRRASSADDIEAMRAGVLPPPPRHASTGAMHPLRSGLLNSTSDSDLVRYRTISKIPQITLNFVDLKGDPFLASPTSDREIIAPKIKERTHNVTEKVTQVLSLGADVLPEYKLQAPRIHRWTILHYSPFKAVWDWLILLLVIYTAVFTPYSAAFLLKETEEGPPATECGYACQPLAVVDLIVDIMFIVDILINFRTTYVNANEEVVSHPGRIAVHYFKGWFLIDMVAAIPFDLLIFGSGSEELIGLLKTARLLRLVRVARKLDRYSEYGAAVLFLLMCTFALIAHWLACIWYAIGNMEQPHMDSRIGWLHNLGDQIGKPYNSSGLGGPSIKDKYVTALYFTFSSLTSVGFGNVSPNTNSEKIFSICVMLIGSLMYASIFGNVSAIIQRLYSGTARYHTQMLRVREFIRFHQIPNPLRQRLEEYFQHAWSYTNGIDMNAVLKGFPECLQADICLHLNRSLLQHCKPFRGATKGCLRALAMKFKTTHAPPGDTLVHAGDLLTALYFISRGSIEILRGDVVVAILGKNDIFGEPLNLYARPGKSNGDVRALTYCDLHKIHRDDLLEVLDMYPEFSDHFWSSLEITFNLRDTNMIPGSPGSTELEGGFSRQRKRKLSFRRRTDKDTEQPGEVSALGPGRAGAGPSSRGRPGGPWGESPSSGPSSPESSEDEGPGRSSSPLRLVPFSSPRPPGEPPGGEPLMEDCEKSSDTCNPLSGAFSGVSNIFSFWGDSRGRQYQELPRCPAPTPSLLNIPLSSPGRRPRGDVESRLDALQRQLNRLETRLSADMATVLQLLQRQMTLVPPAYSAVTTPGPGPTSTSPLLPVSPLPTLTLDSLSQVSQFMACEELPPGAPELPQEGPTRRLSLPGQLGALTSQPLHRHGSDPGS
Sequence of Cytochrome P450 2D6 (P10635 whole entry): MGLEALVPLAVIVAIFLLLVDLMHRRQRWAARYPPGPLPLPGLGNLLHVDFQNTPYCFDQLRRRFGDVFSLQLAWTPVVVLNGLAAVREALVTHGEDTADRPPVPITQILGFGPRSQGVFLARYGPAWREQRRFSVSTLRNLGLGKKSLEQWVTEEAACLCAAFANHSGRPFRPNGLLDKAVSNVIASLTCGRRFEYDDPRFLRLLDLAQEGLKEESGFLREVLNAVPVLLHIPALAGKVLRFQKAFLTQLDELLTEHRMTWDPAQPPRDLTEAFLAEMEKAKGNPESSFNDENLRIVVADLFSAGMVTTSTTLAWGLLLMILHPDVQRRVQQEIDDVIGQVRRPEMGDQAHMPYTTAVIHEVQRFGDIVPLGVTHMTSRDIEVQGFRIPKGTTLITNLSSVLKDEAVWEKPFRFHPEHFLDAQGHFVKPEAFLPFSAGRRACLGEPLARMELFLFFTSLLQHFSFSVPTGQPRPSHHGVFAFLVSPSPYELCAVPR
Sequence of Cytochrome P450 3A4 (P08684 whole entry): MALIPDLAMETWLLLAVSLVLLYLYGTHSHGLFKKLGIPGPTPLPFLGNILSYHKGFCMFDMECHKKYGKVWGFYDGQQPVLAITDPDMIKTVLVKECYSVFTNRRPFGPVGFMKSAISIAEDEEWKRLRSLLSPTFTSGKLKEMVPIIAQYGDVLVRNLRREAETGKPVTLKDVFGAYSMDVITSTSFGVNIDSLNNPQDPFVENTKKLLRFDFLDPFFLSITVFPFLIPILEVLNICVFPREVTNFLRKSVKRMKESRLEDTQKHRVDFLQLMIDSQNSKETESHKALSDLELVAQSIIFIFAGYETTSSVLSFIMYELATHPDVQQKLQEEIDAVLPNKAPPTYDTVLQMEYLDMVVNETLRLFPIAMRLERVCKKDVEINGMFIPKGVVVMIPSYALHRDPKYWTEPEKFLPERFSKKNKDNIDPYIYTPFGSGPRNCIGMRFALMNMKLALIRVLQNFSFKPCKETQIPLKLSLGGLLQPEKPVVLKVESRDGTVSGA

In the case of COc1ccc2c3c([nH]c2c1)[C@@H]1N(CC3)C(=O)c2c(OC)cccc2N1C, the IC50 [1] is reported as greater than 150 µM, the Activity [2] is reported as greater than 1.5 g/kg and the inhibition [3] is reported as “inactive”. For the same compound, the IC50 [4] was 10 µM, the IC50 [5] was 10 µM and the inhibition [6] was “inactive”. The Activity [7] was “Active”, the MRT last at 24 h [8] was 8.4 min and the IC50 [9] was 10 µM. It also gave an AUC(0-t) at 24 h [10] of 146 ng·h/mL, an IC50 [11] of 20 µM and a Tmax [12] of 49.8 min. The half-life [13] was 13.2 min, the IC50 [14] was 10 µM and the bioavailability [15] was 14%. For the same compound, the AUC(0-t) at 24 h [16] was 519 ng·h/mL, the IC50 [17] was 10 µM and the Activity [18] was “Active”. It also gave an IC50 [19] of 0.042 µM.
